Values after ≈ are worked out from the molar mass of the structure shown.
Experiments:
[1] = test system: Aspergillus flavus; assay: Disk diffusion, Aspergillus flavus; assay type: cell-based; conditions: Fungi, 8.0 mm disks, 10 μL
Experimental: (§1) The disk diffusion method was used for determination of the antimicrobial activity using ampicillin, gentamicin and amphotericin B as reference drugs. The results were recorded for each compounds as the average diameter as inhibition zones (IZ) of bacterial or fungal growth around the discs in mm as shown in Table 2.
(§2) Antimicrobial activities were carried out against highly pathogenic strains; three strains of Gram positive bacteria (Bacillus subtilis, Staphylococcus aureus and Streptococcus faecalis), four strains of Gram negative bacteria (Escherichia coli, Neisseria gonorrhoeae, Pseudomonas aeruginosa and Salmonella typhimurium) and three fungi strains (Aspergillus flavus, Aspergillus fumigatus and Candida albicans) isolated from primary agar plates. Antimicrobial activity of the tested samples was determined using a modified Kriby-Bauer disk diffusion method. Briefly, 100 µL of the test bacteria/fungi were grown in 10 mL of fresh media until they reached a count approximately 10^8 cells/mL for bacteria or 10^5 cells/mL for fungi. 100 µL of microbial suspension was spread onto agar plates corresponding to the broth in which they were maintained. The inoculated plates of bacterial strains were incubated at 35–37 °C for 24–48 h, while the inoculated plates of fungal strains such as A. flavus and A. fumigatus were incubated at 25 °C for 48 h and yeast as C. albicans was incubated at 30 °C for 24–48 h.
(§3) The agar disk diffusion (qualitative) method was used in this investigation for determination of the preliminary antibacterial and antifungal activities. The agar used was Mueller-Hinton agar plates that are rigorously tested for composition and pH. Further the depth of the agar in the plate is a factor to be considered in the disk diffusion method.
(§4) Reference drugs: ampicillin was used as a standard antibacterial drug for Gram positive bacteria, gentamicin as a standard antibacterial drug for Gram negative bacteria and amphotericin B as antifungal standard drug.
(§5) Bacterial and fungal strains were spread onto the surface of the agar plates using sterile cotton swabs. For evaluation of antibacterial activities, blank paper disks (Schleicher & Schuell, Alicante, Spain) with a diameter of 8.0 mm were saturated with 10 μL of tested concentration of the stock solutions. Disks were dried and then placed onto inoculated agar plates. The plates of bacterial strains were reincubated at 35–37 °C for 24–48 h, while the plates of fungal strains such as A. flavus and A. fumigatus were reincubated at 25 °C for 48 h and yeast as C. albicans was reincubated at 30 °C for 24–48 h as mentioned above. […] For an accurate analysis, tests were run in triplicate for each strain to avoid any error as described in Table 2.
(§6) Disk diffusion method for filamentous fungi testing by using approved standard method (M02-A11) developed by the CLSI for evaluating the susceptibilities of filamentous fungi to antifungal agents. Disk diffusion method for yeasts developed by using approved standard method (M44-A2) by the CLSI [44]. Agar-based methods such as disk diffusion can be good alternatives because they are simpler and faster than broth-based methods.

[2] = test system: WI 38 (normal fibroblast cells); assay: In vitro cytotoxicity, SRB cell growth assay, normal cells WI 38; assay type: cell-based, human; conditions: 48 h exposure, non-cytotoxic = IC50 >100 μg/mL
Experimental: (§7) The in vitro cytotoxic activity of the newly synthesized compounds against human breast cell line (MCF7), non-small cell lung cancer NCIH460, CNS cancer SF-268 and WI 38 (normal fibroblast cells) were evaluated using doxorubicin as the reference drug according to the method reported by Skehan et al..
(§8) The newly synthesized compounds were evaluated in vitro against three human cancer cell lines; which are MCF-7 (breast adenocarcinoma), NCI-H460 (non-small cell lung cancer) and SF-268 (CNS cancer), and WI 38 (normal fibroblast cells) were used in this study. MCF-7 was obtained from the European Collection of Cell Cultures (ECACC, Salisbury, UK) but NCI-H460, SF-268 and WI 38 were kindly provided by the National Cancer Institute (NCI, Cairo, Egypt). They grow as monolayer and routinely maintained RPMI-1640 medium supplemented with 5% heat inactivated fetal bovine serum (FBS), 2 mM glutamine and antibiotics (penicillin 100 U/mL, streptomycin 100 µg/mL), at 37 °C in a humidified atmosphere containing 5% CO2. Exponentially growing cells were obtained by plating 1.5 × 10^5 cells/mL for MCF-7 and SF-268, and 0.75 × 10^4 cells/mL for NCI-H460 followed by 24 h of incubation. The effect of the vehicle solvent (DMSO) on the growth of these cell lines was evaluated in all experiments by exposing untreated control cells to the maximum concentration (0.5%) of DMSO used in each assay.
(§9) The effect of compounds on the in vitro growth of human tumor cell lines were evaluated according to the procedure adopted by the National Cancer Institute ([…]) in the “In vitro Anticancer Drug Discovery Screen” that uses the protein-binding dye sulforhodamine B (SRB) to assess cell growth. In the assay protocol, all cells were incubated at 37 °C under humidified atmosphere containing 5% CO2. Briefly, exponentially cells growing in 96-well plates were then exposed for 48 h to five serial concentrations of each compound, starting from a maximum concentration of 150 μg/mL. Following this exposure period adherent cells were fixed, washed and stained. The bound stain was solubilized and the absorbance was measured at 492 nm in a plate reader (Bio-Tek Instruments Inc., Power wave XS, Winston, NC, USA). For each test compound and cell line, a dose response curve was obtained and the inhibitory concentration of 50% (IC50), corresponding to the concentration of the compounds that inhibited 50% of the net cell growth was calculated as described elsewhere. Doxorubicin was used as a positive control and tested in the same manner.

[3] = test system: MCF-7 (breast adenocarcinoma); assay: In vitro cytotoxicity, SRB cell growth assay, MCF-7
Experimental: as §7, §8, §9

[4] = test system: Staphylococcus aureus; assay: Disk diffusion, Staphylococcus aureus; assay type: cell-based; conditions: Gram positive, 8.0 mm disks, 10 μL
Experimental: as §1, §2, §3, §4, §5

[5] = test system: Aspergillus fumigatus; assay: Disk diffusion, Aspergillus fumigatus; assay type: cell-based; conditions: Fungi, 8.0 mm disks, 10 μL
Experimental: as §1, §2, §3, §4, §5, §6

[6] = test system: Streptococcus faecalis; assay: Disk diffusion, Streptococcus faecalis; assay type: cell-based; conditions: Gram positive, 8.0 mm disks, 10 μL
Experimental: as §1, §2, §3, §4, §5

[7] = test system: NCI-H460 (non-small cell lung cancer); assay: In vitro cytotoxicity, SRB cell growth assay, NCI-H460
Experimental: as §7, §8, §9

[8] = test system: Escherichia coli; assay: Disk diffusion, Escherichia coli; assay type: cell-based; conditions: Gram negative, 8.0 mm disks, 10 μL
Experimental: as §1, §2, §3, §4, §5

[9] = test system: Neisseria gonorrhoeae; assay: Disk diffusion, Neisseria gonorrhoeae; assay type: cell-based; conditions: Gram negative, 8.0 mm disks, 10 μL
Experimental: as §1, §2, §3, §4, §5

[10] = test system: Pseudomonas aeruginosa; assay: Disk diffusion, Pseudomonas aeruginosa; assay type: cell-based; conditions: Gram negative, 8.0 mm disks, 10 μL
Experimental: as §1, §2, §3, §4, §5

[11] = test system: SF-268 (CNS cancer); assay: In vitro cytotoxicity, SRB cell growth assay, SF-268
Experimental: as §7, §8, §9

[12] = test system: Salmonella typhimurium; assay: Disk diffusion, Salmonella typhimurium; assay type: cell-based; conditions: Gram negative, 8.0 mm disks, 10 μL
Experimental: as §1, §2, §3, §4, §5

[13] = test system: Candida albicans; assay: Disk diffusion, Candida albicans; assay type: cell-based; conditions: Fungi, 8.0 mm disks, 10 μL
Experimental: as §1, §2, §3, §4, §5, §6

[14] = test system: Bacillus subtilis; assay: Disk diffusion, Bacillus subtilis; assay type: cell-based; conditions: Gram positive, 8.0 mm disks, 10 μL
Experimental: as §1, §2, §3, §4, §5

[15] = test system: Salmonella typhimurium; assay: MIC by broth dilution, Salmonella typhimurium; assay type: cell-based; conditions: Gram negative, 0.98-125 µg/mL
Experimental: (§10) In this study, MIC (quantitative method) was used for evaluation of the antimicrobial activity of tested compounds. Screening was evaluated in vitro using the Broth dilution method according to CLSI [45]. All the bacteria were incubated and activated at 30 °C for 24 h inoculation into nutrient broth and the fungi were incubated in malt extract broth for 48 h. The compounds were dissolved in DMSO and then diluted using […] Mueller-Hinton broth. […] In each case triplicate tests were performed and the average was taken as the final reading. The tubes were then inoculated with the test organisms, grown in their suitable broth at 37 °C for 24 h for tested microorganisms (1 × 10^8 CFU/mL for bacteria and 1 × 10^6 CFU/mL of fungi), each 5 mL received 0.1 mL of the above inoculum and incubated at 37 °C for 24 h.

[16] = test system: Escherichia coli; assay: MIC by broth dilution, Escherichia coli; assay type: cell-based; conditions: Gram negative, 0.98-125 µg/mL
Experimental: as §10

[17] = test system: Pseudomonas aeruginosa; assay: MIC by broth dilution, Pseudomonas aeruginosa; assay type: cell-based; conditions: Gram negative, 0.98-125 µg/mL
Experimental: as §10

[18] = test system: Bacillus subtilis; assay: MIC by broth dilution, Bacillus subtilis; assay type: cell-based; conditions: Gram positive, 0.98-125 µg/mL
Experimental: as §10

[19] = test system: Staphylococcus aureus; assay: MIC by broth dilution, Staphylococcus aureus; assay type: cell-based; conditions: Gram positive, 0.98-125 µg/mL
Experimental: as §10

[20] = test system: Streptococcus faecalis; assay: MIC by broth dilution, Streptococcus faecalis; assay type: cell-based; conditions: Gram positive, 0.98-125 µg/mL
Experimental: as §10

Clc1ccc(C=NNc2nc3cc(Br)ccc3nc2Cl)cc1 [Compound 8, 6-Bromo-2-chloro-3-[2-(4-chlorobenzylidene)hydrazinyl]quinoxaline]
Inhibition Zone Diameter (IZ) (mm) Aspergillus flavus [1]: R (R (IZ = 0 mm)) | melting point: 187 to 189 °C | IC50 ([2]; Homo sapiens, WI-38, 48 h): 10.6 ± 5.51 µg/mL (≈ 26.7 µM) | IC50 ([3]; Homo sapiens, MCF7, 48 h, read-out: IC50 (μg/mL) MCF-7): 42.2 ± 2.46 µg/mL (≈ 106 µM) | Inhibition Zone Diameter (IZ) (mm) Staphylococcus aureus [4]: 9 mm | Inhibition Zone Diameter (IZ) (mm) Aspergillus fumigatus [5]: R (R (IZ = 0 mm)) | Inhibition Zone Diameter (IZ) (mm) Streptococcus faecalis [6]: 10 mm | IC50 ([7]; Homo sapiens, NCI-H460, 48 h, read-out: IC50 (μg/mL) NCI-H460): 26.6 ± 2.63 µg/mL (≈ 67.2 µM) | Inhibition Zone Diameter (IZ) (mm) Escherichia coli [8]: 11 mm | Inhibition Zone Diameter (IZ) (mm) Neisseria gonorrhoeae [9]: 9 mm | Inhibition Zone Diameter (IZ) (mm) Pseudomonas aeruginosa [10]: 9 mm | IC50 ([11]; Homo sapiens, SF-268, 48 h, read-out: IC50 (μg/mL) SF-268): 35.3 ± 12.8 µg/mL (≈ 89.2 µM) | Inhibition Zone Diameter (IZ) (mm) Salmonella typhimurium [12]: 7 mm | Inhibition Zone Diameter (IZ) (mm) Candida albicans [13]: R (R (IZ = 0 mm)) | Inhibition Zone Diameter (IZ) (mm) Bacillus subtilis [14]: 9 mm

NNc1nc2ccc(Br)cc2n2nnnc12 [Compound 10]
MIC ([15]; Salmonella enterica, TYPHIMURIUM, 24 h, read-out: Minimum Inhibitory Concentration (MIC) (µg/mL) Salmonella typhimurium): 1.95 µg/mL (≈ 6.96 µM) | MIC ([16]; Escherichia coli, 24 h, read-out: Minimum Inhibitory Concentration (MIC) (µg/mL) Escherichia coli): 3.9 µg/mL (≈ 13.9 µM) | MIC ([17]; Pseudomonas aeruginosa, 24 h, read-out: Minimum Inhibitory Concentration (MIC) (µg/mL) Pseudomonas aeruginosa): 125 µg/mL (≈ 446 µM) | MIC ([18]; Bacillus subtilis, 24 h, read-out: Minimum Inhibitory Concentration (MIC) (µg/mL) Bacillus subtilis): 0.98 µg/mL (≈ 3.5 µM) | MIC ([19]; Staphylococcus aureus, 24 h, read-out: Minimum Inhibitory Concentration (MIC) (µg/mL) Staphylococcus aureus): 0.98 µg/mL (≈ 3.5 µM) | MIC ([20]; Enterococcus faecalis, 24 h, read-out: Minimum Inhibitory Concentration (MIC) (µg/mL) Streptococcus faecalis): 0.98 µg/mL (≈ 3.5 µM)

9-Bromo-di-1,2,4-triazolo[1,5-a:5′,1′-c]quinoxaline [Compound 13]
Minimum Inhibitory Concentration (MIC) (µg/mL) Salmonella typhimurium [15]: 3.9 µg/mL | Inhibition Zone Diameter (IZ) (mm) Aspergillus flavus [1]: R (R (IZ = 0 mm)) | Minimum Inhibitory Concentration (MIC) (µg/mL) Escherichia coli [16]: 7.81 µg/mL | IC50 (μg/mL) WI 38 [2]: 18.62 ± 1.21 µg/mL | IC50 (μg/mL) MCF-7 ([3]; MCF-7, SRB, 48 h exposure): 37.64 ± 6.72 µg/mL | Minimum Inhibitory Concentration (MIC) (µg/mL) Pseudomonas aeruginosa [17]: 125 µg/mL | Inhibition Zone Diameter (IZ) (mm) Staphylococcus aureus [4]: 16 mm | Inhibition Zone Diameter (IZ) (mm) Aspergillus fumigatus [5]: R (R (IZ = 0 mm)) | Inhibition Zone Diameter (IZ) (mm) Streptococcus faecalis [6]: 20 mm | Minimum Inhibitory Concentration (MIC) (µg/mL) Bacillus subtilis [18]: 1.95 µg/mL | IC50 (μg/mL) NCI-H460 ([7]; NCI-H460, SRB, 48 h exposure): 36.05 ± 5.23 µg/mL | Inhibition Zone Diameter (IZ) (mm) Escherichia coli [8]: 17 mm | Minimum Inhibitory Concentration (MIC) (µg/mL) Staphylococcus aureus [19]: 7.81 µg/mL | Inhibition Zone Diameter (IZ) (mm) Neisseria gonorrhoeae [9]: R (R (IZ = 0 mm)) | Inhibition Zone Diameter (IZ) (mm) Pseudomonas aeruginosa [10]: 19 mm | IC50 (μg/mL) SF-268 ([11]; SF-268, SRB, 48 h exposure): 29.35 ± 7.01 µg/mL | Inhibition Zone Diameter (IZ) (mm) Salmonella typhimurium [12]: 17 mm | Inhibition Zone Diameter (IZ) (mm) Candida albicans [13]: R (R (IZ = 0 mm)) | Minimum Inhibitory Concentration (MIC) (µg/mL) Streptococcus faecalis [20]: 62.5 µg/mL | Inhibition Zone Diameter (IZ) (mm) Bacillus subtilis [14]: 17 mm
